Consider one compound from ChEMBL document CHEMBL1128841, “Purification of pig and rat liver squalene epoxidase by affinity chromatography” (Bioorg Med Chem Lett, 1995).

The target of the assay is Squalene monooxygenase (Rattus norvegicus, UniProt P52020). Kind of assay: The compound was tested for its inhibitory activity against rat Squalene epoxidase.
Sequence of Squalene monooxygenase (P52020 whole entry): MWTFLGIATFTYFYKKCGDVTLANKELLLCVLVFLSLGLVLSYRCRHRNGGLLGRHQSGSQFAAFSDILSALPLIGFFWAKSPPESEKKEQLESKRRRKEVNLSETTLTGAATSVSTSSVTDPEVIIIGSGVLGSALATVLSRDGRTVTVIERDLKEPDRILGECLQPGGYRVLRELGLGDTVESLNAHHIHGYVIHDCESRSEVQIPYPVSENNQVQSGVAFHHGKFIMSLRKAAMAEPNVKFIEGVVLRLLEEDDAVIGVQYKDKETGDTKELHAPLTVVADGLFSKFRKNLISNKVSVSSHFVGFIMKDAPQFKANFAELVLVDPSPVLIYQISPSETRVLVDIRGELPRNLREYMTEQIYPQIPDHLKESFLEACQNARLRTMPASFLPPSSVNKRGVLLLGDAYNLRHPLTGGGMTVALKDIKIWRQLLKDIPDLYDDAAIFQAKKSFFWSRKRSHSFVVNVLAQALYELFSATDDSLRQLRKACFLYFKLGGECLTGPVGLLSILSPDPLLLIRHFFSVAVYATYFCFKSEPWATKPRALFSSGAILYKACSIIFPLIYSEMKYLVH

Consider `CNCCC/C(C)=C/CC/C(C)=C/CC/C=C(\C)CC/C=C(\C)CCCNCCCCCCN`, for which the IC50 (as a rule, the concentration needed to halve the response being measured) came to 1000 nM.
